Laboratory results taken from the supplement of paper PMC10477900.
Structures can show the parent of a compound that is named as a salt.

Legend:
HCT116 [1] = details: 72 h
Method: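 HCT116 control and MTA1-KO (CRISPR) HCT116 cells were seeded in 384-well plates (800 cells/well), treated 16 h later with 237 metabolism-related anticancer drugs at five doses (10 uM, 2 uM, 400 nM, 80 nM, 16 nM) for 72 h, two replicates; viability by CCK8. Values are % inhibition of viability relative to untreated cells, plus fitted IC50.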

HCT116 [2] = experiment: viability inhibition vs untreated; higher = more cytotoxic; details: 72 h

SMILES	IC50 (HCT116 [1]; genotype: MTA1-KO) [µM]	IC50 (HCT116 [1]; genotype: control) [µM]	viability inhibition (HCT116 [2]; genotype: MTA1-KO, 16 nM) [%]	viability inhibition (HCT116 [2]; genotype: MTA1-KO, 80 nM) [%]	viability inhibition (HCT116 [2]; genotype: MTA1-KO, 400 nM) [%]	viability inhibition (HCT116 [2]; genotype: MTA1-KO, 2000 nM) [%]	viability inhibition (HCT116 [2]; genotype: MTA1-KO, 10000 nM) [%]	viability inhibition (HCT116 [2]; genotype: control, 16 nM) [%]	viability inhibition (HCT116 [2]; genotype: control, 80 nM) [%]	viability inhibition (HCT116 [2]; genotype: control, 400 nM) [%]	viability inhibition (HCT116 [2]; genotype: control, 2000 nM) [%]	viability inhibition (HCT116 [2]; genotype: control, 10000 nM) [%]
COC(=O)c1ccc(O)c(NC(=O)COc2ccc(C34CC5CC(CC(C5)C3)C4)cc2)c1 [LW6]	9.47	> 10	1.16	1.05	-7.41	5.31	49.9	-13.6	-18.1	-10.6	-9.1	-7.79
CC(C)c1nc(N(C)S(C)(=O)=O)nc(-c2ccc(F)cc2)c1/C=C/[C@@H](O)C[C@@H](O)CC(=O)O [Rosuvastatin]	> 10	> 10	-4.22	-8.46	-10.3	-11.2	-10.9	-1.14	-8.14	4.9	-10.3	31.2
CCn1c(=O)c(-c2ccn[nH]2)cc2c(C)nc(N)nc21 [Voxtalisib]	2.36	5.49	5.96	-3.02	6.24	35.5	72.3	8.11	25.4	16.1	37.2	70.3
Cc1nc(Nc2ccc(F)cc2)nc(N2CCc3ccccc3C2C)c1C (stereo not drawn) [Revaprazan hydrochloride]	> 10	> 10	-4.67	-1.6	-2.29	-13.6	-33.6	20.9	17.7	11	7.17	-10.8
Nc1ccc(S(N)(=O)=O)cc1 [Sulfanilamide]	> 10	> 10	-4.56	-14.5	-27.6	-20.9	-19.4	-9.12	-7.95	-13.7	-13.7	-7.82
COc1cc(Nc2nc3ccccc3nc2NS(=O)(=O)c2ccc(NC(=O)c3ccc(C)c(OC)c3)cc2)cc(OC)c1 [Voxtalisib Analogue]	> 10	> 10	-13.9	-7.35	-17	-3.38	24.9	-7.04	-8.31	-4.56	-7.36	5.96
COc1ccc([C@@H]2OC[C@H]3[C@@H]2CO[C@@H]3c2ccc(O[C@@H]3O[C@H](CO)[C@@H](O)[C@H](O)[C@H]3O)c(OC)c2)cc1OC [Forsythin]	> 10	> 10	5.1	-3.89	-0.379	2.87	27.7	8.22	24	15.4	-3.75	24.5
COCC1(CO)C(=O)C2CCN1CC2 (stereo not drawn) [PRIMA-1Met]	> 10	> 10	7.04	1.21	20.1	-5.66	5.13	13.6	13	5.28	1.17	30.6
Cc1cc(C2CCCCC2)n(O)c(=O)c1 [Ciclopirox]	4.96	1.02	-13.6	8.1	-8.33	25.7	64.7	9.52	6.31	24	77	113
